Data published in patent publication US20250129028A1, “COMPOUNDS AND METHODS FOR YAP/TEAD MODULATION AND INDICATIONS THEREFOR” (Opna Bio SA, priority 2022, published 2025).

system: TEAD-dependent transcription; assay: TEAD-dependent transcription cell-based reporter assay (MSTO-211H+12XGTIIC luciferase); set-up: species or system human; settings: Homo sapiens; MSTO-211H+12XGTIIC cell line, luciferase signal normalized to cell viability, 24 hours compound incubation; read-out: MSTO-211H GMean IC50 (uM) Cell Assay Reporter Cell Variant: TEAD
Method in brief: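 MSTO-211H mesothelioma cells stably carrying a 12xGTIIC TEAD-response-element luciferase reporter, treated with serial compound dilutions for 24 h at 37 °C. Luminescence normalized to CellTiter-Fluor viability signal; % inhibition versus DMSO and 20 μM K-975 controls, IC50 by nonlinear regression.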

Row | SMILES | IC50 [µM]
1 | NC(=O)NCC(=O)N1CCc2c(cccc2-c2ccc(C(F)(F)F)cc2)C1 [P-0272, 1-(2-oxo-2-(5-(4-(trifluoromethyl)phen-yl)-3,4-dihydroisoquin-olin-2(1H)-yl)ethyl)urea] | 0.001 to 10
2 | N#CCCC(=O)N1CCc2c(cccc2-c2ccc(C(F)(F)F)cc2)C1 [P-0273, 4-oxo-4-(5-(4-(trifluoromethyl)phenyl)-3,4-dihydroisoquinolin-2(1H)-yl)butanenitrile] | 0.001 to 10
3 | Nc1nc(C(=O)N2CCc3c(cccc3-c3ccc(C(F)(F)F)cc3)C2)cs1 [P-0274] | 0.001 to 10
4 | O=C(Cc1cnc[nH]1)N1CCc2c(cccc2-c2ccc(C(F)(F)F)cc2)C1 [P-0275, 2-(1H-imidazol-5-yl)-1-(5-(4-(trifluoromethyl)-phenyl)-3,4-dihydroiso-quinolin-2(1H)-yl)ethan-1-one] | 0.001 to 10
5 | CS(=O)(=O)CCNC(=O)N1CCc2c(cccc2-c2ccc(C(F)(F)F)cc2)C1 [P-0276, N-(2-(methylsulfonyl)-ethyl)-5-(4-(trifluoro-methyl)phenyl)-3,4-dihydroisoquinoline-2(1H)-carboxamide] | 0.001 to 10
6 | CS(=O)(=O)CCC(=O)N1CCc2ccc(-c3ccc(OC(F)(F)F)cc3)cc2C1 [P-0277, 3-(methylsulfonyl)-1-(7-(4-(trifluoromethoxy)phenyl)-3,4-dihydroisoquinolin-2(1H)-yl)propan-1-one] | 10 to 100
